Where two headings read alike, the source gives them in different places.
Columns and labels:
jack bean urease [1] = target: T1, jack bean urease (Canavalia ensiformis, UniProt P07374); assay: biochemical
Description: Each tube received 400 µL of urea (20 mM) as substrate, which was then incubated for 10 min at the same temperature.
Each inhibitor’s binding mechanism was tested at various doses (0–20 µM) for kinetics investigations. […] Lineweaver Burk plots were drawn using GraphPad PRISM 7.0 to determine the values of Km (app), Vmax (app), and Ki (inhibition constant).

jack bean urease [2] = target: T1, jack bean urease; conditions: for Vmax (app): maximum rate at 20 µM of inhibitor concentration; for Mode of inhibition: urea 0.5-4.0 mM, inhibitor 0-20 µM; for % inhibition of urease: value in parentheses beside IC50, n = 3, concentration not given
[3] = test system: carrageenan-induced acute inflammation in mice; assay: Carrageenan-induced paw edema anti-inflammatory study; type: in vivo; conditions: 10 mg/kg intraperitoneally, n = 6
Description: As previously mentioned in our study, carrageenan-induced acute inflammation in mice was used to measure the anti-inflammatory effect ([Ahmed et al., 2018b]). Six groups of mice were formed and each group comprised six mice, the mice fasted 16 h before of induction of inflammation by injecting the phlogistic agent (carrageenan). The right hind paw of each mouse was measured before and after the 100 µL injection of the carrageenan (1% in 0.9% saline). The test substances, standard medication (indomethacin), and control (0.9% saline) were administered intraperitoneally at 10 mg/kg body weight. For 3 h, and after the 1-h interval, the thickness (mm) of the right hind paw of each mouse was measured. The difference in thickness of paw edema of control and test substance was used to determine the percentage inhibition of inflammation by the formula given below. Percentage inhibition of inflammation=Ct−CocontrolCt−Cotreated/Ct−Cocontrol×100 (2)
Where Ct and Co are the right hind paw thickness after and before carrageenan injection.

COX-2 enzyme = target: T2, COX-2 enzyme (Homo sapiens, UniProt P35354); assay: COX-2 inhibitory assay (Cayman kit); type: biochemical; conditions: n = 3
T2 construct: purchased Cayman Chemical Company, United States Item No. 760151
T2 sequence (P35354 18-604): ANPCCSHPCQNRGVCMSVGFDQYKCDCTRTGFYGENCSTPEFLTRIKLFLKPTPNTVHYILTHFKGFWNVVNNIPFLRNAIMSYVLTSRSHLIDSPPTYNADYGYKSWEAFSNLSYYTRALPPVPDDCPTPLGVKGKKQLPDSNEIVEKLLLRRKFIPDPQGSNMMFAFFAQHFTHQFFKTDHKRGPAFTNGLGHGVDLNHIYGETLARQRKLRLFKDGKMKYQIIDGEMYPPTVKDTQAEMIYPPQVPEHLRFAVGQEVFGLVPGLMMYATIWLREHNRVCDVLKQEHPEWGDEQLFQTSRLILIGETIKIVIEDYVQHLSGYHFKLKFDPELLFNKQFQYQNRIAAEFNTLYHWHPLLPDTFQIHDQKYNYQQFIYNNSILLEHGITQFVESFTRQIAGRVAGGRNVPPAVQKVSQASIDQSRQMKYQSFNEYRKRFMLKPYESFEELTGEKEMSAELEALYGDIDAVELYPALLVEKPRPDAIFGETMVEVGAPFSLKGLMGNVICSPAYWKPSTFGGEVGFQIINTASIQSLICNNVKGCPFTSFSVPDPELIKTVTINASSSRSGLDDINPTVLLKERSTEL
Description: For the initial activity assay, 150 µL buffer, 10 µL heme, and 10 µL COX-2 enzyme were mixed in a well whereas 110 µL buffer, 10 µL heme, 10 µL COX-2 enzyme, and 40 µL test inhibitor (10 µM) were mixed for inhibitory assay using 96 wells plate.

T1 sequence (P07374 whole entry, looked up): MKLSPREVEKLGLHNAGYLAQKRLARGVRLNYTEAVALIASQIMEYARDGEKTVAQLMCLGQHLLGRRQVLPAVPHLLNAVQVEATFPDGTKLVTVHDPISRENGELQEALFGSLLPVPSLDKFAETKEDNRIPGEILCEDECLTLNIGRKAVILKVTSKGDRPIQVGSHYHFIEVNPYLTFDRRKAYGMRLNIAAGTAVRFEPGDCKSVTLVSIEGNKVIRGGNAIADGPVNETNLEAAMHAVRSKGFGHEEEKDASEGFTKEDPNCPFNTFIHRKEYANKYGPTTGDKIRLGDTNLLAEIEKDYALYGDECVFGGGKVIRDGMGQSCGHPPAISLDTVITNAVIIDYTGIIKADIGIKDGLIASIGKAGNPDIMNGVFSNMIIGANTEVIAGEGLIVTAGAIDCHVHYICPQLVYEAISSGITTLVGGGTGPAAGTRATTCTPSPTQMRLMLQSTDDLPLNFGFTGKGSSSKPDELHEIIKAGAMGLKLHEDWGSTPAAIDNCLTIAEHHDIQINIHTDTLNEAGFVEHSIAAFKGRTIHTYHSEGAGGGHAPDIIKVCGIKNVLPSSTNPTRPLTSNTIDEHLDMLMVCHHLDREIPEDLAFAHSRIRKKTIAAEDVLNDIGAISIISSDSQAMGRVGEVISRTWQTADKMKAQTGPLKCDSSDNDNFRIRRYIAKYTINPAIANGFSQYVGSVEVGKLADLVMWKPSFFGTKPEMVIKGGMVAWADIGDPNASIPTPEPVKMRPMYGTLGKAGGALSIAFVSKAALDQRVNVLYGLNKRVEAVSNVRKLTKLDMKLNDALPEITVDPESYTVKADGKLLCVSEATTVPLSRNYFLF

Compound	IC50 (jack bean urease [1]) [µM]	Ki (jack bean urease [1]) [µM]	Vmax (app) (jack bean urease [2]; Lineweaver Burk plot) [µM/min]	Mode of inhibition (jack bean urease [2])	% inhibition of urease (jack bean urease [2]) [%]	melting point [°C]	Paw edema in mm (mean ± SEM) ([3]; 0 h)	% inhibition of paw edema ([3]; 1 h) [%]	Paw edema in mm (mean ± SEM) ([3]; 1 h) [mm]	% inhibition of paw edema ([3]; 2 h) [%]	Paw edema in mm (mean ± SEM) ([3]; 2 h) [mm]	% inhibition of paw edema ([3]; 3 h) [%]	Paw edema in mm (mean ± SEM) ([3]; 3 h) [mm]	inhibition at 10 µM (COX-2 enzyme) [%]	IC50 (jack bean urease [2]; read-out: IC50 (µM), mean ± SEM, jack bean urease, n = 3, thiourea as standard) [µM]	Ki (jack bean urease [2]; read-out: Ki (inhibition constant), secondary Lineweaver Burk plot) [µM]	Km (jack bean urease [2]; read-out: Km (app), Michaelis constant at 20 µM of inhibitor concentration, Lineweaver Burk plot) [µM]
COc1ccc2cc([C@H](C)C(=O)Nc3ccc(S(N)(=O)=O)cc3)ccc2c1 [Conjugate 3, (S)-2-(6-methoxynaphthalen-2-yl)-N-(4-sulfamoylphenyl)propanamide]	6.69 ± 0.11	2.4	2.57	Competitive	89.4	208 to 210											
COc1ccc2cc([C@H](C)C(=O)Nc3ccc(S(=O)(=O)Nc4onc(C)c4C)cc3)ccc2c1 [Conjugate 4, (S)-N-(4-(N-(3,4-dimethylisoxazol-5-yl)sulfamoyl)phenyl)-2-(6-methoxynaphthalen-2-yl)propanamide]	25.63 ± 0.24				94.1	241 to 243	1.80 ± 0.04 (−) mm	8.2	2.72 ± 0.12	45.5	2.53 ± 0.09	78.0	2.36 ± 0.11	64.5			
COc1ccc2cc([C@H](C)C(=O)Nc3ccc(S(=O)(=O)Nc4nccs4)cc3)ccc2c1 [Conjugate 5, (S)-2-(6-methoxynaphthalen-2-yl)-N-(4-(N-(thiazol-2-yl)sulfamoyl)phenyl)propanamide]	5.82 ± 0.28	5.05	0.714	Competitive	88.9	184 to 185	1.81 ± 0.05 (−) mm	9.1	2.71 ± 0.09	43.3	2.57 ± 0.11	75.3	2.43 ± 0.08	61.3			
COc1ccc2cc([C@H](C)C(=O)Nc3ccc(S(=O)(=O)Nc4ncccn4)cc3)ccc2c1 [Conjugate 6, (S)-2-(6-methoxynaphthalen-2-yl)-N-(4-(N-(pyrimidin-2-yl)sulfamoyl)phenyl)propanamide]	4.08 ± 0.1	5.58	0.363	Mixed	90.3	163 to 165											
COc1ccc2cc([C@H](C)C(=O)Nc3ccc(S(=O)(=O)Nc4nccc(C)n4)cc3)ccc2c1 [Conjugate 7, (S)-2-(6-methoxynaphthalen-2-yl)-N-(4-(N-(4-methylpyrimidin-2-yl)sulfamoyl)phenyl)propanamide]	16.57 ± 0.14	9.98	0.602	Mixed	84.3	160 to 162											
COc1ccc2cc([C@H](C)C(=O)Nc3ccc(S(=O)(=O)Nc4cc(C)on4)cc3)ccc2c1 [Conjugate 8, (S)-2-(6-methoxynaphthalen-2-yl)-N-(4-(N-(5-methylisoxazol-3-yl)sulfamoyl)phenyl)propanamide]	29.64 ± 0.27				87.6	178 to 180	1.80 ± 0.08 (−) mm	24.1	2.56 ± 0.14	47.0	2.51 ± 0.08	82.8	2.23 ± 0.12	75.4			
COc1ccc2cc([C@H](C)C(=O)Nc3ccc(S(=O)(=O)NC(C)=O)cc3)ccc2c1 [Conjugate 9, (S)-N-(4-(N-acetylsulfamoyl)phenyl)-2-(6-methoxynaphthalen-2-yl)propanamide]	20.32 ± 0.12	2.61	0.66	Mixed	85.7	138 to 140											
COc1ccc2cc([C@H](C)C(=O)Nc3ccc(S(=O)(=O)NC(=N)N)cc3)ccc2c1 [Conjugate 10, (S)-N-(4-(N-carbamimidoylsulfamoyl)phenyl)-2-(6-methoxynaphthalen-2-yl)propanamide]	5.06 ± 0.29	3.56	1.96	Competitive	89.1												
COc1ccc2c(c1)c(CC(=O)O)c(C)n2C(=O)c1ccc(Cl)cc1 [Indomethacin, reference compound]							1.81 ± 0.05 (−) mm	20.1	2.61 ± 0.14	55.2	2.41 ± 0.09	86.8	2.14 ± 0.09				
COc1ccc2cc([C@H](C)C(=O)O)ccc2c1 [Naproxen, reference compound]							1.81 ± 0.06 (−) mm	21.1	2.60 ± 0.13	46.3	2.53 ± 0.11	76.1	2.41 ± 0.12				
NC(N)=S [Thiourea, reference compound]			18.61	Competitive	92.3										22.6 ± 0.23	18.2	2180

Reference: publication PMC10434765, “Exploring the potential of propanamide-sulfonamide based drug conjugates as dual inhibitors of urease and cyclooxygenase-2: biological and their in silico studies” (Frontiers in Chemistry, 2023)
